Structures are written as SMILES.

IC50 data for 28 compounds are collected here from patent publication US10568879B2 (GALAPAGOS NV, priority 2015, dated 2020).

T1 sequence (Q9NQS5 whole entry): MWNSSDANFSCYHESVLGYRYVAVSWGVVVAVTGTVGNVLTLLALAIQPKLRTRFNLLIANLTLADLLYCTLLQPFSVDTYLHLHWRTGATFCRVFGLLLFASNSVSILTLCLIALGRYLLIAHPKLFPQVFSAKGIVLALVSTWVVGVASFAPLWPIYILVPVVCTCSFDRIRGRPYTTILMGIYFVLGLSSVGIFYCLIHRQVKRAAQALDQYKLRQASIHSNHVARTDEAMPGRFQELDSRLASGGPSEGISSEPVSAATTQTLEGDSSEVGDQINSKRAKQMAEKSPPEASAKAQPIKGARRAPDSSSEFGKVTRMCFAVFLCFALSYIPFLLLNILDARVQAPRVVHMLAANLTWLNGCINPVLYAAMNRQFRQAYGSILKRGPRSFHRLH

This test addresses T1, GPR84 (Homo sapiens, UniProt Q9NQS5).
T1 construct: expressed in transfected cells
The test can be described thus: GPR84 [35S]GTPγS binding assay. Conditions: 3,3′-diindolylmethane at EC80; membranes from stable cell line over expressing GPR84. Format: biochemical. As for the experimental part:
The following assay can be used for determination of GPR84 activation. The [^35S]GTPγS binding assay measures the level of G protein activation following agonist occupation of a GPCR, by determining the binding of the non-hydrolysable analog [^35S]GTPγS to Gα subunits.
The assay is performed in a 96-well plate where the following reagents are added. First 50 μL compound is added into the assay plate, followed by addition of 20 μL 3,3′-diindolylmethane at EC80 concentration (concentration which gives 80% of the activity of GPR84). Then, 30 μL of a mixture consisting of membranes-GTPγS-SpA beads is added [mixture consists of 20 μg/well membranes derived from stable cell line over expressing GPR84 (membranes are pre-incubated with 0.1 μM GDP for 15 min at 4° C.), 0.1 nM [^35S]GTPγS (Perkin Elmer, NEG030) and 0.5 mg/well PVT-WGA SpA beads (Perkin Elmer, RPNQ0001)]. All components are diluted in assay buffer containing 20 mM Tris pH 7.5; 5 mM MgCl2; 250 mM NaCl; 0.05% BSA; 75 μg/mL saponin. After an incubation of 90 min at room temperature, 20 μL CsCl2 0.8 M (MP Biomedicals, 02150589) is added, followed by centrifugation at 2000 rpm during 20 min. Plates are read on a topcount reader (perkin elmer) immediately after centrifugation (readout time, 1 min/well).
For the compound `Cc1ccnc(-c2ccc3c(c2)CCn2c(OC[C@@H]4COCCO4)cc(=O)c(C)c2-3)c1` [Compound 103, 4-[[(2S)-1,4-dioxan-2-yl]methoxy]-1-methyl-9-(4-methyl-2-pyridyl)-6,7-dihydrobenzo[a]quinolizin-2-one], the IC50 was in the range of 0.01 to 100 nM. As for `Cc1c2n(c(OC[C@@H]3COCCO3)cc1=O)CCc1cc(OC3CN(C(=O)OC(C)(C)C)C3)ccc1-2` [Compound 104, tert-butyl 3-[[4-[[(2S)-1,4-dioxan-2-yl]methoxy]-1-methyl-2-oxo-6,7-dihydrobenzo[a]quinolizin-9-yl]oxy]azetidine-1-carboxylate], the figure is 0.01 to 100 nM; as for `[2H]C(Oc1ccc2c(c1)CCn1c(OC[C@@H]3COCCO3)c([2H])c(=O)c(C)c1-2)=C(F)F` [Compound 105, 3-deuterio-9-(1-deuterio-2,2-difluoro-vinyloxy)-4-[[(2S)-1,4-dioxan-2-yl]methoxy]-1-methyl-6,7-dihydrobenzo[a]quinolizin-2-one], 0.01 to 100 nM; as for `[2H]C([2H])(Oc1ccc2c(c1)CCn1c(OC[C@@H]3COCCO3)cc(=O)c(C)c1-2)C(F)(F)F` [Compound 106, 9-(1,1-dideuterio-2,2,2-trifluoro-ethoxy)-4-[[(2S)-1,4-dioxan-2-yl]methoxy]-1-methyl-6,7-dihydrobenzo[a]quinolizin-2-one], 0.01 to 100 nM. Under `Cc1c2n(c(OCC3CCO3)cc1=O)CCc1cc(OCc3ccccc3)ccc1-2` (stereo not shown) [Compound 107, 9-benzyloxy-1-methyl-4-(oxetan-2-ylmethoxy)-6,7-dihydrobenzo[a]quinolizin-2-one] stands 100 to 500 nM; under `Cc1c2n(c(OC[C@@H]3CCCO3)cc1=O)CCc1cc(OCc3ccccc3)ccc1-2` [Compound 108, 9-benzyloxy-1-methyl-4-[[(2S)-tetrahydrofuran-2-yl]methoxy]-6,7-dihydrobenzo[a]quinolizin-2-one], 0.01 to 100 nM. As for `Cc1c2n(c(OCC3CCCCO3)cc1=O)CCc1cc(OCc3ccccc3)ccc1-2` (stereo not shown) [Compound 109, 9-benzyloxy-1-methyl-4-(tetrahydropyran-2-ylmethoxy)-6,7-dihydrobenzo[a]quinolizin-2-one], the figure is 0.01 to 100 nM. For the compound `COC1CN(c2ccc3c(c2)CCn2c(OC[C@@H]4COCCO4)cc(=O)c(C)c2-3)C1` [Compound 110, 4-[[(2S)-1,4-dioxan-2-yl]methoxy]-9-(3-methoxyazetidin-1-yl)-1-methyl-6,7-dihydrobenzo[a]quinolizin-2-one], the IC50 lay in the range of 0.01 to 100 nM. Under `COC1CCN(c2ccc3c(c2)CCn2c(OC[C@@H]4COCCO4)cc(=O)c(C)c2-3)CC1` [Compound 111, 4-[[(2S)-1,4-dioxan-2-yl]methoxy]-9-(4-methoxy-1-piperidyl)-1-methyl-6,7-dihydrobenzo[a]quinolizin-2-one] stands 0.01 to 100 nM; under `Cc1c2n(c(OC[C@@H]3COCCO3)cc1=O)CCc1cc(N3CCC(C(=O)N4CCCCC4)CC3)ccc1-2` [Compound 112, 4-[[(2S)-1,4-dioxan-2-yl]methoxy]-1-methyl-9-[4-(piperidine-1-carbonyl)-1-piperidyl]-6,7-dihydrobenzo[a]quinolizin-2-one], 0.01 to 100 nM; under `Cc1c2n(c(OC[C@@H]3COCCO3)cc1=O)CCc1cc(N3CCC(c4ccccc4)CC3)ccc1-2` [Compound 113, 4-[[(2S)-1,4-dioxan-2-yl]methoxy]-1-methyl-9-(4-phenyl-1-piperidyl)-6,7-dihydrobenzo[a]quinolizin-2-one], 0.01 to 100 nM. Under `Cc1c2n(c(OC[C@@H]3COCCO3)cc1=O)CCc1cc(N3CCCCC3)ccc1-2` [Compound 115, 4-[[(2S)-1,4-dioxan-2-yl]methoxy]-1-methyl-9-(1-piperidyl)-6,7-dihydrobenzo[a]quinolizin-2-one] stands 0.01 to 100 nM. Under `Cc1c2n(c(OC[C@@H]3COCCO3)cc1=O)CCc1cc(N3CCCC(C)C3)ccc1-2` (stereo partly drawn) [Compound 116, 4-[[(2S)-1,4-dioxan-2-yl]methoxy]-1-methyl-9-(3-methyl-1-piperidyl)-6,7-dihydrobenzo[a]quinolizin-2-one] stands 0.01 to 100 nM.

`Cc1c2n(c(OC[C@@H]3COCCO3)cc1=O)CCc1cc(N3CCC(c4ccc(F)cc4)CC3)ccc1-2` [Compound 117, 4-[[(2S)-1,4-dioxan-2-yl]methoxy]-9-[4-(4-fluorophenyl)-1-piperidyl]-1-methyl-6,7-dihydrobenzo[a]quinolizin-2-one] gave an IC50 of 0.01 to 100 nM.

As to `Cc1c2n(c(OC[C@@H]3COCCO3)cc1=O)CCc1cc(OC3CN(C(=O)C4CC4)C3)ccc1-2` [Compound 118, 9-[1-(cyclopropanecarbonyl)azetidin-3-yl]oxy-4-[[(2S)-1,4-dioxan-2-yl]methoxy]-1-methyl-6,7-dihydrobenzo[a]quinolizin-2-one], the IC50 lay in the range of 100 to 500 nM. The compound `Cc1c2n(c(OC[C@@H]3COCCO3)cc1=O)CCc1cc(OC3CN(C(=O)C(F)(F)F)C3)ccc1-2` [Compound 119, 4-[[(2)S-1,4-dioxan-2-yl]methoxy]-1-methyl-9-[1-(2,2,2-trifluoroacetyl)azetidin-3-yl]oxy-6,7-dihydrobenzo[a]quinolizin-2-one] gave an IC50 of 100 to 500 nM. `CCOC(=O)N1CC(Oc2ccc3c(c2)CCn2c(OC[C@@H]4COCCO4)cc(=O)c(C)c2-3)C1` [Compound 120, ethyl 3-[[4-[[(2S)-1,4-dioxan-2-yl]methoxy]-1-methyl-2-oxo-6,7-dihydrobenzo[a]quinolizin-9-yl]oxy]azetidine-1-carboxylate] displayed an IC50 of 0.01 to 100 nM. Compound `Cc1c2n(c(OC[C@@H]3COCCO3)cc1=O)CCc1cc(N3CCC(Oc4cccnc4)CC3)ccc1-2` [Compound 121, 4-[[(2S)-1,4-dioxan-2-yl]methoxy]-1-methyl-9-[4-(3-pyridyloxy)-1-piperidyl]-6,7-dihydrobenzo[a]quinolizin-2-one] came in with an IC50 of 0.01 to 100 nM.

For `Cc1c2n(c(OC[C@@H]3COCCO3)cc1=O)CCc1cc(N3CCC(C#N)CC3)ccc1-2` [Compound 122, 1-[4-[[(2)S-1,4-dioxan-2-yl]methoxy]-1-methyl-2-oxo-6,7-dihydrobenzo[a]quinolizin-9-yl]piperidine-4-carbonitrile], the IC50 fell in the range of 0.01 to 100 nM.

For `Cc1c2n(c(OC[C@@H]3COCCO3)cc1=O)CCc1cc(N3CCCC(F)(F)C3)ccc1-2` [Compound 123, 9-(3,3-difluoro-1-piperidyl)-4-[[(2S)-1,4-dioxan-2-yl]methoxy]-1-methyl-6,7-dihydrobenzo[a]quinolizin-2-one], the 50% inhibitory concentration (IC50) lay in the range of 0.01 to 100 nM.

With `Cc1c2n(c(OC[C@@H]3COCCO3)cc1=O)CCc1cc(C(C)C)ccc1-2` [Compound 124, 4-[[(2S)-1,4-dioxan-2-yl]methoxy]-9-isopropyl-1-methyl-6,7-dihydrobenzo[a]quinolizin-2-one], the 50% inhibitory concentration (IC50) lay within 0.01 to 100 nM. As for `[2H]c1c(OC[C@@H]2COCCO2)n2c(c(C)c1=O)-c1ccc(OCC(F)(F)F)cc1CC2` [Compound 125, 3-deuterio-4-[[(2S)-1,4-dioxan-2-yl]methoxy]-1-methyl-9-(2,2,2-trifluoroethoxy)-6,7-dihydrobenzo[a]quinolizin-2-one], the figure is 0.01 to 100 nM; as for `[2H]c1c(OC[C@@H]2COCCO2)n2c(c(C)c1=O)-c1ccc(OC([2H])([2H])C([2H])([2H])F)cc1CC2` [Compound 126, 3-deuterio-4-[[(2S)-1,4-dioxan-2-yl]methoxy]-1-methyl-9-(1,1,2,2-tetradeuterio-2-fluoro-ethoxy)-6,7-dihydrobenzo[a]quinolizin-2-one], 0.01 to 100 nM. Under `Cc1c2n(c(OC[C@@H]3COCCO3)cc1=O)CCc1cc(OC3CCN(C(=O)OC(C)(C)C)C3)ccc1-2` (stereo partly drawn) [Compound 127, tert-butyl 3-[[4-[[(2S)-1,4-dioxan-2-yl]methoxy]-1-methyl-2-oxo-6,7-dihydrobenzo[a]quinolizin-9-yl]oxy]pyrrolidine-1-carboxylate] stands 0.01 to 100 nM; under `Cc1c2n(c(OC[C@@H]3COCCO3)cc1=O)CCc1cc(OC3CCN(C(=O)OC(C)(C)C)CC3)ccc1-2` [Compound 128, tert-butyl 4-[[4-[[(2S)-1,4-dioxan-2-yl]methoxy]-1-methyl-2-oxo-6,7-dihydrobenzo[a]quinolizin-9-yl]oxy]piperidine-1-carboxylate], 0.01 to 100 nM; under `Cc1c2n(c(OC[C@@H]3COCCO3)cc1=O)CCc1cc(N(C)CCC(F)(F)F)ccc1-2` [Compound 129, 4-[[(2S)-1,4-dioxan-2-yl]methoxy]-1-methyl-9-[methyl(3,3,3-trifluoropropyl)amino]-6,7-dihydrobenzo[a]quinolizin-2-one], 0.01 to 100 nM.

Turning to `Cc1c2n(c(OC[C@@H]3COCCO3)cc1=O)CCc1cc(N3CCCC3)ccc1-2` [Compound 130, 4-[[(2S)-1,4-dioxan-2-yl]methoxy]-1-methyl-9-pyrrolidin-1-yl-6,7-dihydrobenzo[a]quinolizin-2-one], the IC50 was 0.01 to 100 nM. Turning to `Cc1c2n(c(OC[C@@H]3COCCO3)cc1=O)CCc1cc(N3CCC(F)(F)C3)ccc1-2` [Compound 131, 9-(3,3-difluoropyrrolidin-1-yl)-4-[[(2S)-1,4-dioxan-2-yl]methoxy]-1-methyl-6,7-dihydrobenzo[a]quinolizin-2-one], the half-inhibitory concentration (IC50) lay within 0.01 to 100 nM.
